Where a name gives a salt, the structure may show the parent alone.

Broadly, the IC50 is the point on the concentration scale where inhibition reaches its midpoint.

Sequence of HPK1 (Q92918 1-346 limits assumed): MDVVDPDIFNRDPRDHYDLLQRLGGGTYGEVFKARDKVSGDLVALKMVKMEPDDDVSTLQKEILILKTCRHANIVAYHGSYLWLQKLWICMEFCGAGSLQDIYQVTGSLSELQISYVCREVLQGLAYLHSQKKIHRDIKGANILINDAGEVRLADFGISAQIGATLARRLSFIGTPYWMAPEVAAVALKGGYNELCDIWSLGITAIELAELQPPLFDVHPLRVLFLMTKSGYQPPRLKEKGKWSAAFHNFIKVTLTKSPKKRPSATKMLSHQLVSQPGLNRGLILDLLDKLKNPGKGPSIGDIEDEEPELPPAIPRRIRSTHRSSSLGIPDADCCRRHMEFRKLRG

This assay deals with HPK1 (Homo sapiens (Human), UniProt Q92918). Briefly: HPK1 Inhibition Assay (ADP-Glo kinase assay). Type of assay: biochemical. Particulars: ATP 10 μM. As to the method:
A stock solution of 10 mM test compound was prepared in DMSO. The compound was prepared by 5-fold and 10-point serial dilutions with HPK1 kinase assay buffer. The HPK1 kinase assay buffer contained 40 mM Tris, pH 7.5; 20 mM MgCl2, 0.1 mg/ml BSA, and 50 μM DTT. 7.5 ng/μl of Active HPK1 (Promega, V4098) and 0.1 μg/ml MBP substrate protein were added to the reaction system. The final concentration of ATP in the HPK1 kinase reaction system was 10 μM. Serial diluted compounds were transferred to the reaction system and incubated at room temperature for 1 hr. 5 μL of ADP-Glo™ Reagent (Promega, V9101) was added and incubated for 40 min to stop the kinase reaction and deplete the unconsumed ATP. […] The luminescence was measured with a plate-reading luminometer.
For orientation: ADP-Glo first removes unused ATP, then detects ADP through luciferase.
Consider `COCc1nc2c(N3CC[C@H](N)C3)c(NC(=O)c3ccnc(-c4c(F)cccc4OC)c3F)ccc2n1C` [Example 15, N-{4-[(3S)-3-aminopyrrolidin-1-yl]-2-(methoxymethyl)-1-methyl-1,3-benzodiazol-5-yl}-3-fluoro-2-(2-fluoro-6-methoxyphenyl) pyridine-4-carboxamide], for which the concentration for half-maximal inhibition (IC50) is < 100 nM. Next, `Cn1c(C(F)(F)F)nc2c(N3CC[C@H](N)C3)c(NC(=O)c3ccnn(-c4c(F)cccc4F)c3=O)ccc21` [Example 39, (S)—N-(4-(3-aminopyrrolidin-1-yl)-1-methyl-2-(trifluoromethyl)-1H-benzo[d]imidazol-5-yl)-2-(2,6-difluorophenyl)-3-oxo-2,3-dihydropyridazine-4-carboxamide]: 100 to 1000 nM; `Cn1c(C(F)(F)F)nc2c(N3CCC[C@H]3CN)c(NC(=O)c3ccnn(-c4c(F)cccc4F)c3=O)ccc21` [Example 40, (S)-N-(4-(2-(aminomethyl)pyrrolidin-1-yl)-1-methyl-2-(trifluoromethyl)-1H-benzo[d]imidazol-5-yl)-2-(2,6-difluorophenyl)-3-oxo-2,3-dihydropyridazine-4-carboxamide]: < 100 nM; `COc1cccc(F)c1-n1nccc(C(=O)Nc2ccc3c(nc(C(F)(F)F)n3C)c2N2CC[C@H](N)C2)c1=O` [Example 41, (S)-N-(4-(3-aminopyrrolidin-1-yl)-1-methyl-2-(trifluoromethyl)-1H-benzo[d]imidazol-5-yl)-2-(2-fluoro-6-methoxyphenyl)-3-oxo-2,3-dihydropyridazine-4-carboxamide]: < 100 nM. To `Cn1c(-c2ccncc2F)nc2c(N3CC[C@H](N)C3)c(NC(=O)c3ccnn(-c4c(F)cccc4F)c3=O)ccc21` [Example 42, N-{4-[(35)-3-aminopyrrolidin-1-yl]-2-(3-fluoropyridin-4-yl)-1-methyl-1,3-benzodiazol-5-yl}-2-(2,6-difluorophenyl)-3-oxopyridazine-4-carboxamide] belongs < 100 nM; to `COCc1nc2c(N3CC[C@H](N)C3)c(NC(=O)c3ccnn(-c4c(F)cccc4F)c3=O)ccc2n1C` [Example 44, (S)—N-(4-(3-aminopyrrolidin-1-yl)-2-(methoxymethyl)-1-methyl-1H-benzo[d]imidazol-5-yl)-2-(2,6-difluorophenyl)-3-oxo-2,3-dihydropyridazine-4-carboxamide], < 100 nM.

On to `COCCn1c(C)nc2c(N3CCC[C@H]3CN)c(NC(=O)c3ccnn(-c4c(F)cccc4F)c3=O)ccc21` [Example 45], for which the IC50 is < 100 nM.

For the compound `CC(C)c1nc2c(N3CC[C@H](N)C3)c(NC(=O)c3ccnn(-c4c(F)cccc4F)c3=O)ccc2n1C` [Example 46, (S)—N-(4-(3-aminopyrrolidin-1-yl)-2-isopropyl-1-methyl-1H-benzo[d]imidazol-5-yl)-2-(2,6-difluorophenyl)-3-oxo-2,3-dihydropyridazine-4-carboxamide], the IC50 was < 100 nM. To `Cc1nc2c(N3CC[C@H](N)C3)c(NC(=O)c3ccnn(-c4c(F)cccc4F)c3=O)ccc2n1C1CCOCC1` [Example 47, (S)—N-(4-(3-aminopyrrolidin-1-yl)-2-methyl-1-(tetrahydro-2H-pyran-4-yl)-1H-benzo[d]imidazol-5-yl)-2-(2,6-difluorophenyl)-3-oxo-2,3-dihydropyridazine-4-carboxamide trifluoroacetate] belongs 100 to 1000 nM. Next, `Cc1nc2c(N3CC[C@H](N)C3)c(NC(=O)c3ccnn(-c4c(F)cccc4F)c3=O)ccc2n1C1CC1` [Example 48, N-{4-[(35)-3-aminopyrrolidin-1-yl]-1-cyclopropyl-2-methyl-1,3-benzodiazol-5-yl}-2-(2,6-difluorophenyl)-3-oxopyridazine-4-carboxamide]: 100 to 1000 nM; `Cc1nc2c(N3CC[C@H](N)C3)c(NC(=O)c3ccnn(-c4c(Cl)cccc4Cl)c3=O)ccc2n1C` [Example 49, N-{4-[(35)-3-aminopyrrolidin-1-yl]-1,2-dimethyl-1,3-benzodiazol-5-yl}-2-(2,6-dichlorophenyl)-3-oxopyridazine-4-carboxamide hydrochloride]: < 100 nM; `COc1ccc(F)cc1-n1nccc(C(=O)Nc2ccc3c(nc(C)n3C)c2N2CC[C@H](N)C2)c1=O` [Example 50, (S)—N-(4-(3-aminopyrrolidin-1-yl)-1,2-dimethyl-1H-benzo[d]imidazol-5-yl)-2-(5-fluoro-2-methoxyphenyl)-3-oxo-2,3-dihydropyridazine-4-carboxamide]: < 100 nM. Consider `COc1cccc(F)c1-n1cccc(C(=O)Nc2cc(F)ccc2N2C[C@H]3C[C@@H]2CN3)c1=O` [Example 51, N-(2-((1R,4R)-2,5-diazabicyclo[2.2.1]heptan-2-yl)-5-fluorophenyl)-1-(2-fluoro-6-methoxyphenyl)-2-oxo-1,2-dihydropyridine-3-carboxamide], for which the IC50 was < 100 nM.

Compound `COc1cccc(F)c1-n1cccc(C(=O)Nc2cc(F)c3nn(C)cc3c2N2C[C@H]3C[C@@H]2CN3)c1=O` [Example 52, N-(4-((1R,4R)-2,5-diazabicyclo[2.2.1]heptan-2-yl)-7-fluoro-2-methyl-2H-indazol-5-yl)-1-(2-fluoro-6-methoxyphenyl)-2-oxo-1,2-dihydropyridine-3-carboxamide] registered an IC50 of 100 to 1000 nM. Next, `COc1cccc(F)c1-n1cccc(C(=O)Nc2cc(F)c3c(cnn3C)c2N2C[C@H]3C[C@@H]2CN3)c1=O` [Example 53, N-(4-((1R,4R)-2,5-diazabicyclo[2.2.1]heptan-2-yl)-7-fluoro-1-methyl-1H-indazol-5-yl)-1-(2-fluoro-6-methoxyphenyl)-2-oxo-1,2-dihydropyridine-3-carboxamide]: 100 to 1000 nM. Next, `COc1cccc(F)c1-n1cccc(C(=O)Nc2ccc3c(nc(C)n3C)c2N2CCC[C@H]2CN)c1=O` [Example 54, (S)-N-(4-(2-(aminomethyl)pyrrolidin-1-yl)-1,2-dimethyl-1H-benzo[d]imidazol-5-yl)-1-(2-fluoro-6-methoxyphenyl)-2-oxo-1,2-dihydropyridine-3-carboxamide]: < 100 nM; `COc1cccc(F)c1-c1cccc(C(=O)Nc2cc(F)ccc2N2C[C@H]3C[C@@H]2CN3)[n+]1[O-]` [Example 55, 2-((2-((1R,4R)-2,5-diazabicyclo[2.2.1]heptan-2-yl)-5-fluorophenyl)carbamoyl)-6-(2-fluoro-6-methoxyphenyl)pyridine 1-oxide]: < 100 nM. Next, `COc1cccc(F)c1-c1cccc(C(=O)Nc2ccc3c(cnn3C)c2N2C[C@H]3C[C@@H]2CN3)[n+]1[O-]` [Example 56, 2-((4-((1R,4R)-2,5-diazabicyclo[2.2.1]heptan-2-yl)-1-methyl-1H-indazol-5-yl)carbamoyl)-6-(2-fluoro-6-methoxyphenyl)pyridine 1-oxide]: < 100 nM. On to `COc1cccc(F)c1-c1cccc(C(=O)Nc2ccc3nn(C)cc3c2N2C[C@H]3C[C@@H]2CN3)[n+]1[O-]` [Example 57, 2-((4-((1R,4R)-2,5-diazabicyclo[2.2.1]heptan-2-yl)-2-methyl-2H-indazol-5-yl)carbamoyl)-6-(2-fluoro-6-methoxyphenyl)pyridine 1-oxide], for which the IC50 was < 100 nM.

Turning to `COc1cccc(F)c1-c1cccc(C(=O)Nc2cc(F)c3c(cnn3C)c2N2CC[C@H](N)C2)[n+]1[O-]` [Example 58, 2-((4-((S)-3-aminopyrrolidin-1-yl)-7-fluoro-1-methyl-1H-indazol-5-yl)carbamoyl)-6-(2-fluoro-6-methoxyphenyl)pyridine 1-oxide], the IC50 was < 100 nM. Next, `COc1cccc(F)c1-c1cccc(C(=O)Nc2cc(F)c3nn(C)cc3c2N2CC[C@H](N)C2)[n+]1[O-]` [Example 59, 2-((4-((S)-3-aminopyrrolidin-1-yl)-7-fluoro-2-methyl-2H-indazol-5-yl)carbamoyl)-6-(2-fluoro-6-methoxyphenyl)pyridine 1-oxide]: < 100 nM; `COc1cccc(F)c1-c1cccc(C(=O)Nc2ccc3c(nc(C)n3C)c2N2C[C@@H]3C[C@H]2CN3)[n+]1[O-]` [Example 60, 2-((4-((1S,4S)-2,5-diazabicyclo[2.2.1]heptan-2-yl)-1,2-dimethyl-1H-benzo[d]imidazol-5-yl)carbamoyl)-6-(2-fluoro-6-methoxyphenyl)pyridine 1-oxide]: < 100 nM; `COc1cccc(F)c1-c1cccc(C(=O)Nc2ccc3c(nc(C)n3C)c2N2CCC[C@H]2CN)[n+]1[O-]` [Example 61, 2-((4-((S)-2-(aminomethyl)pyrrolidin-1-yl)-1,2-dimethyl-1H-benzo[d]imidazol-5-yl)carbamoyl)-6-(2-fluoro-6-methoxyphenyl)pyridine 1-oxide]: < 100 nM. To `COc1cccc(F)c1-c1cccc(C(=O)Nc2ccc3c(nc(C)n3C)c2N2CC[C@H](N)C2)[n+]1[O-]` [Example 62, 2-((4-((S)-3-aminopyrrolidin-1-yl)-1,2-dimethyl-1H-benzo[d]imidazol-5-yl)carbamoyl)-6-(2-fluoro-6-methoxyphenyl)pyridine 1-oxide] belongs 100 to 1000 nM; to `COc1cccc(F)c1-c1cccc(C(=O)Nc2cc(F)c3nn(C)cc3c2N2C[C@@H](N)C[C@H]2CO)[n+]1[O-]` [Example 63, 2-((4-((2S,4S)-4-amino-2-(hydroxymethyl)pyrrolidin-1-yl)-7-fluoro-2-methyl-2H-indazol-5-yl)carbamoyl)-6-(2-fluoro-6-methoxyphenyl)pyridine 1-oxide], < 100 nM; to `COc1cccc(F)c1-c1nc(C(=O)Nc2cc(F)ccc2N2C[C@@H]3C[C@H]2CN3)cs1` [Example 64, N-(2-((1S,4S)-2,5-diazabicyclo[2.2.1]heptan-2-yl)-5-fluorophenyl)-2-(2-fluoro-6-methoxyphenyl)thiazole-4-carboxamide], 100 to 1000 nM.

Source of the values: patent US20250122174A1 (Shenzhen Yuanli Shenwan Innovative Medicine Co., Ltd., priority 2022, published 2025).
